Experimental data reported in PubChem BioAssay AID212 (DTP/NCI, 2004).
Several values for one entry are separate records, joined by “and”; a condition that tells them apart may be missing. Equal entries are not always repeated. Inconclusive results are not listed.

Tested on: BDF1 mice, colon carcinoma 38 sc, T/C %
Assay: NCI In Vivo Anticancer Drug Screen. Data for tumor model Colon Carcinoma 38 (subcutaneous) in B6D2F1 (BDF1) mice
Details: endpoint: median tumor weight (est.), higher = larger tumour
Method in brief: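 Transplantable tumor in mice; compound-treated vs vehicle-dosed controls. Measured survival or tumor size; value = T ÷ C.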

[1] = dose: 50.0 mg/kg/injection, schedule: Q07DX003 (ip), vehicle: saline
[2] = dose: 100.0 mg/kg/injection, schedule: Q07DX003 (ip), vehicle: saline
[3] = dose: 25.0 mg/kg/injection, schedule: Q07DX002 (ip), vehicle: saline
[4] = dose: 100.0 mg/kg/injection, schedule: Q07DX002 (ip), vehicle: saline
[5] = dose: 200.0 mg/kg/injection, schedule: Q07DX002 (ip), vehicle: saline
[6] = dose: 800.0 mg/kg/injection, schedule: Q07DX002 (ip), vehicle: saline
[7] = dose: 6.25 mg/kg/injection, schedule: Q07DX002 (ip), vehicle: saline with Tween-80
[8] = dose: 12.5 mg/kg/injection, schedule: Q07DX002 (ip), vehicle: saline with Tween-80
[9] = dose: 200.0 mg/kg/injection, schedule: Q07DX002 (ip), vehicle: saline with Tween-80
[10] = dose: 100.0 mg/kg/injection, schedule: Q07DX002 (ip), vehicle: saline with Tween-80

With `CO[C@H](C(=O)[C@@H](O)[C@@H](C)O)[C@@H]1Cc2cc3cc(OC4CC(OC5CC(O)C(O)C(C)O5)C(O)C(C)O4)c(C)c(O)c3c(O)c2C(=O)[C@H]1OC1CC(OC2CC(OC3CC(C)(O)C(O)C(C)O3)C(O)C(C)O2)C(O)C(C)O1` (stereo not given in full) the T/C (dose: 0.06 mg/kg/injection, schedule: Q07DX002 (ip), vehicle: saline) was 114 % of control, the T/C (dose: 0.12 mg/kg/injection, schedule: Q07DX002 (ip), vehicle: saline) was 99 % of control and the T/C (dose: 0.25 mg/kg/injection, schedule: Q07DX002 (ip), vehicle: saline) was 161 % of control. The T/C (dose: 0.25 mg/kg/injection, schedule: Q07DX003 (ip), vehicle: saline) was 75 % of control, the T/C (dose: 0.5 mg/kg/injection, schedule: Q07DX003 (ip), vehicle: saline) was 65 % of control and the T/C (dose: 1.0 mg/kg/injection, schedule: Q07DX003 (ip), vehicle: saline) was 49 % of control. For the same compound, the T/C (dose: 2.0 mg/kg/injection, schedule: Q07DX003 (ip), vehicle: saline) was 37 % of control.
`COc1cc2cc3c4cc(OC)c(OC)cc4cc[n+]3c(C)c2cc1OC` (tested in a mixture with another compound) was tested, and the T/C [1] was 164 % of control, the T/C [2] was 77 % of control and 96 % of control and the T/C (dose: 400.0 mg/kg/injection, schedule: Q07DX003 (ip), vehicle: saline) was 53 % of control.
In the case of `NC1=NC(=O)N2CC12` (stereo not given), the T/C [3] is reported as 81 % of control, the T/C (dose: 50.0 mg/kg/injection, schedule: Q07DX002 (ip), vehicle: saline) is reported as 82 % of control and 83 % of control and the T/C [4] is reported as 81 % of control and 104 % of control. The T/C [5] was 66 % of control and 70 % of control and the T/C (dose: 400.0 mg/kg/injection, schedule: Q07DX002 (ip), vehicle: saline) was 79 % of control.
For `O=[N+]([O-])c1nccn1CC(O)CO` (stereo not given), the T/C [4] was 120 % of control and the T/C [6] was 105 % of control.
`BrCC[Se]c1ccccc1` was tested, and the T/C [7] was 158 % of control and 177 % of control, the T/C [8] was 100 % of control and 104 % of control and the T/C (dose: 50.0 mg/kg/injection, schedule: Q07DX002 (ip), vehicle: saline with Tween-80) was 107 % of control. For the same compound, the T/C [9] was 178 % of control.
For `O=c1nc(Oc2ccccc2)nc2ncccn12`, the T/C [8] was 82 % of control, the T/C (dose: 25.0 mg/kg/injection, schedule: Q07DX002 (ip), vehicle: saline with Tween-80) was 94 % of control and the T/C [10] was 74 % of control.
For `O=[N+]([O-])O.O=[N+]([O-])O.[NH-]C1CCCCC1[NH-].[Pt+2]` (stereo not given), the T/C (dose: 0.5 mg/kg/injection, schedule: Q07DX002 (ip), vehicle: dextrose) was 101 % of control, the T/C (dose: 2.0 mg/kg/injection, schedule: Q07DX002 (ip), vehicle: dextrose) was 62 % of control and 81 % of control and the T/C (dose: 4.0 mg/kg/injection, schedule: Q07DX002 (ip), vehicle: dextrose) was 62 % of control and 81 % of control. The T/C (dose: 8.0 mg/kg/injection, schedule: Q07DX002 (ip), vehicle: dextrose) was 27 % of control and 33 % of control.
With `COC1C(OC(=O)/C=C/C=C/C=C/C=C/C(=O)O)CCC2(CO2)C1C1(C)OC1CC=C(C)C` (stereo not given) the T/C (dose: 25.0 mg/kg/injection, schedule: Q07DX002 (ip), vehicle: suspension in saline) was 101 % of control, the T/C (dose: 50.0 mg/kg/injection, schedule: Q07DX002 (ip), vehicle: suspension in saline) was 208 % of control and the T/C (dose: 200.0 mg/kg/injection, schedule: Q07DX002 (ip), vehicle: suspension in saline) was 115 % of control.
`C1CN2CN3CCN(CN1C3)C2` was tested, and the T/C [3] was 111 % of control, the T/C [4] was 166 % of control and the T/C [5] was 115 % of control.
For `c1cnc2ncncc2n1`, the T/C [7] was 88 % of control, the T/C [8] was 83 % of control and 95 % of control and the T/C [10] was 80 % of control and 89 % of control. The T/C [4] was 124 % of control, the T/C [9] was 73 % of control and 88 % of control and the T/C [5] was 181 % of control.
With `O=C(O)CP(=O)(O)O` the T/C [5] was 115 % of control and 96 % of control, the T/C [6] was 78 % of control and 80 % of control and the T/C (dose: 1600.0 mg/kg/injection, schedule: Q07DX002 (ip), vehicle: saline) was 59 % of control.
In the case of `NC1(C(=O)O)CCCC1`, the T/C (dose: 12.5 mg/kg/injection, schedule: Q07DX003 (ip), vehicle: saline) is reported as 72 % of control, the T/C (dose: 25.0 mg/kg/injection, schedule: Q07DX003 (ip), vehicle: saline) is reported as 78 % of control and the T/C [1] is reported as 92 % of control. The T/C [2] was 66 % of control and the T/C (dose: 200.0 mg/kg/injection, schedule: Q07DX003 (ip), vehicle: saline) was 16 % of control.
For `CCOC(=O)/N=[N+](\[O-])c1ccccc1`, the T/C [7] was 49 % of control and the T/C [8] was 71 % of control.
